# Source: patent US10898469B2, “Imidazolylamide derivative” (Sumitomo Dainippon Pharma Co., Ltd., priority 2016, dated 2021)
# Structures can show the parent of a compound that is named as a salt. Where two headings read alike, the source gives them in different places.
# What was measured:
# Type in all cases: cell-based, human
# [1] = tested on: HT-29 cells; assay: Inhibition test for sphere-forming ability of cancer cells (Test Example 1), HT-29; settings: for (100%-inhibition rate of cell proliferation) at 1 μmol/L, HT-29: value with %; for IC50: concentration for 50% inhibition of cell proliferation, read-out: IC50 (μmol/L) HT-29 (Sphere IC50 value); for viability at 1 µM: read-out: (100%-inhibition rate of cell proliferation) at 1 μmol/L, 1 μmol/L, value with %
# Description: (§1) The reliable methods established for measuring the self-renewal ability of cells which is one of the CSC's properties include a method for measuring the sphere-forming ability of cancer cells in non-adherent condition in the absence of serum (Cancer Res 65, 5506-5511 (2005)). Human colorectal cancer-derived HCT-116 cells, human colon-adenocarcinoma-derived HT-29 cells, and human pharyngeal cancer-derived FaDu cells were available from American Type Culture Collection (ATCC). HCT-116 cells and HT-29 cells were cultured at 37° C. under 5% CO2 using the McCoy's 5a medium containing 10% fetal bovine serum (FBS) and 1% penicillin/streptomycin, and FaDu cells were cultured at 37° C. under 5% CO2 using the MEM medium containing 10% FBS, 1% non-essential amino acid, 1% sodium pyruvate, and 1% penicillin/streptomycin. HCT-116 cells, HT-29 cells, and FaDu cells were seeded in a 384 Well Black Clear Bottom Ultra-Low Attachment Microplate (Corning Cat. No. 3827) in an amount of 350-800 cells/well using the DMEM/F12 medium containing 2% B27 supplement (GIBCO), 20 ng/mL epidermal growth factor (EGF) (peprotech), 10 ng/mL basic fibroblast growth factor (bFGF) (peprotech), 5 μg/mL insulin (Sigma), and 1% penicillin/streptomycin. Each test compound was added into each well to adjust the final concentration of DMSO to 0.1%, and the cells were cultured for 4 days. The number of viable cells in each well was then measured with CellTiter-Glo® Luminescent Cell Viability Assay (Promega) to calculate the concentration of each test compound for 50% inhibition of cell proliferation (Sphere IC50 value; μmol/L).
# (§2) The experiment of Test Example 1 was performed for each compound of each Example. The concentration of each test compound for 50% inhibition of cell proliferation (Sphere IC50 value; μmol/L) is shown in the following Table.
# [2] = tested on: FaDu cells; assay: Inhibition test for sphere-forming ability of cancer cells (Test Example 1), FaDu; settings: for (100%-inhibition rate of cell proliferation) at 1 μmol/L, FaDu: value with %; for IC50: concentration for 50% inhibition of cell proliferation, read-out: IC50 (μmol/L) FaDu (Sphere IC50 value); for viability at 1 µM: read-out: (100%-inhibition rate of cell proliferation) at 1 μmol/L, 1 μmol/L, value with %
# Description: as §1, §2
# [3] = tested on: HCT-116 cells; assay: Inhibition test for sphere-forming ability of cancer cells (Test Example 1), HCT-116; settings: for (100%-inhibition rate of cell proliferation) at 1 μmol/L, HCT-116 / IC50 / viability at 1 µM: HCT-116 cells; for (100%-inhibition rate of cell proliferation) at 1 μmol/L, HCT-116 / viability at 1 µM: value with %, 1 μmol/L; for IC50: concentration for 50% inhibition of cell proliferation, read-out: IC50 (μmol/L) HCT-116 (Sphere IC50 value); for inhibitory effect on the sphere-forming ability of cancer cells: Test Example 1, summary in words, cell line not given (HCT-116, HT-29, FaDu tested); for viability at 1 µM: read-out: (100%-inhibition rate of cell proliferation) at 1 μmol/L
# Description: as §1, §2
Compound,IC50 [1] [µmol/L],IC50 [2] [µmol/L],IC50 [3] [µmol/L],other results
COc1ccc(C(=O)Nc2cn(Cc3ccc(C(F)(F)F)cc3)cn2)cc1OC [Example 287],–,–,–,"(100%-inhibition rate of cell proliferation) at 1 μmol/L, HT-29 [1]: 124%; (100%-inhibition rate of cell proliferation) at 1 μmol/L, FaDu [2]: 53.0%; (100%-inhibition rate of cell proliferation) at 1 μmol/L, HCT-116 [3]: 95.8%"
O=C(/C=C/c1cccc(Oc2ccccc2)c1)Nc1cn(Cc2cccc(Cl)c2)cn1 [Example 79],0.7,0.86,0.79,–
O=C(/C=C/c1cccc(Oc2ccccc2)c1)Nc1cn(Cc2cccc(OC(F)(F)F)c2)cn1 [Example 108],–,–,–,IC50 ([1]; Homo sapiens): 3.43 µmol/L; IC50 ([2]; Homo sapiens): 9.77 µmol/L; IC50 ([3]; Homo sapiens): 3.31 µmol/L
CCOc1ccc(C(=O)Nc2cn(Cc3cccc(Cl)c3)cn2)cn1 [Example 203],0.71,0.9,0.9,–
Cc1ccc(F)c(Cn2cnc(NC(=O)c3ccc(OC(C)C)nc3)c2)c1F [Example 217],0.48,0.75,0.22,–
O=C(/C=C/c1c[nH]cn1)Nc1cn(Cc2cccc(Cl)c2)cn1 [Example 90],7.87,6.32,8.17,–
O=C(/C=C/c1cccnc1)Nc1cn(Cc2cccc(OC(F)(F)F)c2)cn1 [Example 109],–,–,–,IC50 ([1]; Homo sapiens): 0.75 µmol/L; IC50 ([2]; Homo sapiens): 0.67 µmol/L; IC50 ([3]; Homo sapiens): 2.65 µmol/L
O=C(/C=C/c1ccc(Br)cc1)Nc1cn(Cc2cccc(Cl)c2)cn1 [Example 61],0.02,0.07,0.09,inhibitory effect on the sphere-forming ability of cancer cells [3]: particularly potent inhibitory effect
Cn1cc(C(=O)Nc2cn(Cc3cccc(Cl)c3)cn2)ccc1=O [Example 243],–,–,–,viability at 1 µM ([1]; Homo sapiens): 19.5%; viability at 1 µM ([2]; Homo sapiens): 29%; viability at 1 µM ([3]; Homo sapiens): 23.8%
COc1cc(/C=C/C(=O)Nc2cn(Cc3cccc(Cl)c3)cn2)c([N+](=O)[O-])cc1OC [Example 75],6.45,7.19,7.56,–
CC(C)Oc1ccc(C(=O)Nc2cn(Cc3cccc(OC(F)(F)F)c3)cn2)cn1 [Example 215],0.66,0.85,0.88,–
"O=C(Nc1cn(Cc2cccc(Cl)c2)cn1)/C(F)=C/c1cccnc1 [Example 43, (Z)—N-(1-(3-Chlorobenzyl)-1H-imidazol-4-yl)-2-fluoro-3-(pyridin-3-yl)acrylamide]",–,–,–,IC50 ([1]; Homo sapiens): 0.49 µmol/L; IC50 ([2]; Homo sapiens): 0.69 µmol/L; IC50 ([3]; Homo sapiens): 0.85 µmol/L
O=C(/C=C/c1ccc(O)cc1)Nc1cn(Cc2cccc(Cl)c2)cn1 [Example 84],0.52,0.68,0.59,–
O=C(/C=C/c1ccc2ccccc2c1)Nc1cn(Cc2cccc(Cl)c2)cn1 [Example 95],3.23,0.99,> 10,–
O=C(Nc1cn(Cc2cccc(C(F)(F)F)c2)cn1)c1ccc(CC(F)F)nc1 [Example 187],3.74,8.64,7.31,–
CCCOc1ccc(C(=O)Nc2cn(Cc3cccc(Cl)c3)cn2)cn1 [Example 136],–,–,–,"(100%-inhibition rate of cell proliferation) at 1 μmol/L, HT-29 [1]: 71.8%; (100%-inhibition rate of cell proliferation) at 1 μmol/L, FaDu [2]: 75.2%; (100%-inhibition rate of cell proliferation) at 1 μmol/L, HCT-116 [3]: 44.2%"
O=C(Nc1cn(Cc2cccc(C(F)(F)F)c2)cn1)c1ccc(=O)[nH]c1 [Example 199],–,–,–,"(100%-inhibition rate of cell proliferation) at 1 μmol/L, HT-29 [1]: 31.2%; (100%-inhibition rate of cell proliferation) at 1 μmol/L, FaDu [2]: 25.9%; (100%-inhibition rate of cell proliferation) at 1 μmol/L, HCT-116 [3]: 39.8%"

Compound,IC50 [1] [µmol/L],IC50 [2] [µmol/L],IC50 [3] [µmol/L],other results
O=C(Nc1cn(Cc2cccc(Cl)c2)cn1)c1ccc2nccn2c1 [Example 176],3.43,5.16,7.16,–
Cn1cc(/C=C/C(=O)Nc2cn(Cc3cccc(Cl)c3)cn2)ccc1=O [Example 12],–,–,–,IC50 ([1]; Homo sapiens): 0.92 µmol/L; IC50 ([2]; Homo sapiens): 1.44 µmol/L; IC50 ([3]; Homo sapiens): 7.54 µmol/L
COc1cccc(OC)c1/C=C/C(=O)Nc1cn(Cc2cccc(Cl)c2)cn1 [Example 76],2.71,4.11,6.18,–
O=C(/C=C/c1ccc(F)cc1Br)Nc1cn(Cc2cccc(Cl)c2)cn1 [Example 78],6.34,8.9,7.31,–
CCOc1ncc(C(=O)Nc2cn(Cc3cccc(Cl)c3)cn2)cc1Cl [Example 220],4.25,0.77,> 10,–
O=C(Nc1cn(Cc2cccc(OC(F)(F)F)c2)cn1)/C(F)=C/c1cccnc1 [Example 111],–,–,–,IC50 ([1]; Homo sapiens): 0.83 µmol/L; IC50 ([2]; Homo sapiens): 0.99 µmol/L; IC50 ([3]; Homo sapiens): 9.31 µmol/L
O=C(/C=C/c1ccccc1F)Nc1cn(Cc2cccc(Cl)c2)cn1 [Example 50],0.89,6.7,2.48,–
"COCCOc1cc(/C=C/C(=O)Nc2cn(Cc3cccc(Cl)c3)cn2)ccc1OC [Example 29, (E)-N-(1-(3-Chlorobenzyl)-1H-imidazol-4-yl)-3-(4-methoxy-3-(2-methoxyethoxy)phenyl)acrylamide]",–,–,–,IC50 ([1]; Homo sapiens): 0.89 µmol/L; IC50 ([2]; Homo sapiens): 0.76 µmol/L; IC50 ([3]; Homo sapiens): 5.87 µmol/L
COc1ccc(C(=O)Nc2cn(Cc3ccc(C)c(Cl)c3)cn2)cc1OC [Example 295],–,–,–,"(100%-inhibition rate of cell proliferation) at 1 μmol/L, HT-29 [1]: 37.8%; (100%-inhibition rate of cell proliferation) at 1 μmol/L, FaDu [2]: 31.8%; (100%-inhibition rate of cell proliferation) at 1 μmol/L, HCT-116 [3]: 83.0%"
Cc1cccc(C(=O)Nc2cn(Cc3cccc(Cl)c3)cn2)n1 [Example 279],–,–,–,viability at 1 µM ([1]; Homo sapiens): 42.3%; viability at 1 µM ([2]; Homo sapiens): 47.2%; viability at 1 µM ([3]; Homo sapiens): 87.4%
Cc1cccc(/C=C/C(=O)Nc2cn(Cc3c(F)ccc(C)c3F)cn2)c1 [Example 115],–,–,–,IC50 ([1]; Homo sapiens): 0.66 µmol/L; IC50 ([2]; Homo sapiens): 0.79 µmol/L; IC50 ([3]; Homo sapiens): 0.79 µmol/L
O=C(Nc1cc(-c2ccccc2)n[nH]1)c1cn(Cc2cccc(Cl)c2)cn1 [Example 259],0.74,0.74,0.92,–
CCOc1ccc(/C=C/C(=O)Nc2cn(Cc3cccc(Cl)c3)cn2)cc1 [Example 74],< 0.01,< 0.01,0.05,inhibitory effect on the sphere-forming ability of cancer cells [3]: particularly potent inhibitory effect
"Nc1ccc(/C=C/C(=O)Nc2cn(Cc3cccc(Cl)c3)cn2)cc1 [Example 3, (E)-3-(4-Aminophenyl)-N-(1-(3-chlorobenzyl)-1H-imidazol-4-yl)acrylamide Dihydrochloride]",–,–,–,IC50 ([1]; Homo sapiens): 3.58 µmol/L; IC50 ([2]; Homo sapiens): 3.13 µmol/L; IC50 ([3]; Homo sapiens): 6.76 µmol/L
O=C(/C=C/c1ccc([N+](=O)[O-])cc1)Nc1cn(Cc2cccc(Cl)c2)cn1 [Example 68],< 0.01,0.01,0.07,inhibitory effect on the sphere-forming ability of cancer cells [3]: particularly potent inhibitory effect
CCOc1ccc(C(=O)Nc2cn(Cc3cccc(C(F)(F)F)c3)cn2)cn1 [Example 210],0.82,0.79,0.81,–
CCCCNC(=O)c1ccc(/C=C/C(=O)Nc2cn(Cc3cccc(Cl)c3)cn2)cn1 [Example 27],–,–,–,IC50 ([1]; Homo sapiens): 3.38 µmol/L; IC50 ([2]; Homo sapiens): 5.84 µmol/L; IC50 ([3]; Homo sapiens): > 10 µmol/L
